Starred links: 1 amine or outer side, 2 acyl side, 3 side chain; linkers in the order of their positions; H or OH if unused. Positions of bridges follow the written chain, without caps; N, C: chain ends. Non-standard residues stand in square brackets, D forms with d. Residues, ends and D or L forms follow the SMILES beside them. *: point of attachment. NMePhe(3-Cl) = CN[C@@H](Cc1cccc(Cl)c1)C(=O)O; NMehPhe = CN[C@@H](CCc1ccccc1)C(=O)O; X3 = O=C([C@H](CCCCO)N[*:1])[*:2]; NMeF = CN[C@@H](Cc1ccccc1)C(=O)O; NMeGABA = CN(CCCC(=O)[*:2])[*:1]; Butyl(3-Me,3-OH) = CC(C)(O)CC*; CH2CONHtBu = CC(C)(C)NC(=O)C*; NMeL = CN[C@@H](CC(C)C)C(=O)O; NMeV = CN[C@H](C(=O)O)C(C)C; NMeA = CN[C@@H](C)C(=O)O; Piperidide = C1CCN(*)CC1; NBuGly = CCCCNCC(=O)O; NPrGly = CCCNCC(=O)O; Sar = CNCC(=O)O; tBu = CC(C)(C)*
test: Caco-2 membrane permeability, improved method as used in the following Examples (96-well, 20 to 24 h preincubation); format: in vitro ADME; conditions: Caco-2, Caco-2
Method in brief: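 Papp (cm/sec) was derived from LC/MS of basal samples collected 180 min after apical dosing in FaSSIF/HBSS pH 6.0 with 1% DMSO, against a basal HBSS pH 7.4 receiver containing 4% BSA. Three-week Caco-2 cultures were first preincubated with compound in DMEM+FaSSIF at 37 °C for 20–24 h.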

| SMILES | Papp A→B [×10⁻⁶ cm/s] |
| --- | --- |
| CC(C)C[C@@H]1NC(=O)[C@H](CCc2ccccc2)N(C)C(=O)[C@@H](C(C)C)NC(=O)C[C@@H](C(=O)N2CCCCC2)NC(=O)[C@H](CC(C)C)N(C)C(=O)[C@H](Cc2ccccc2)N(C)C(=O)[C@H](COCCC(C)(C)O)NC(=O)[C@H](CC(C)C)N(C)C(=O)CN(C)C(=O)[C@H]([C@@H](C)O)NC(=O)[C@H](CC(C)C)N(C)C1=O [pd438] ([dV][NMehPhe]L[NMeL]T[Sar][NMeL]S(Butyl(3-Me,3-OH))[NMeF][NMeL]D-Piperidide; lactam N-11) | 1 |
| CC(C)C[C@@H]1NC(=O)[C@H](CC(C)C)N(C)C(=O)C[C@@H](C(=O)N2CCCCC2)NC(=O)[C@H](CC(C)C)N(C)C(=O)CN(C)C(=O)[C@H](CCC(=O)N(C)C)NC(=O)[C@H](CC(C)C)N(C)C(=O)[C@H](Cc2ccccc2)N(C)C(=O)[C@H](CC(C)C)NC(=O)[C@H](Cc2ccccc2)N(C)C(=O)[C@H](CC(C)C)N(C)C1=O [pd439] ([NMeL]L[NMeL][NMeF]L[NMeF][NMeL]E(NMe2)[Sar][NMeL]D-Piperidide; lactam N-11) | 1 |

same assay, conditions: human, Caco-2, Caco-2

| SMILES | Papp A→B at 180 min [×10⁻⁶ cm/s] |
| --- | --- |
| CC(C)C[C@@H]1NC(=O)[C@H](Cc2ccccc2)N(C)C(=O)[C@@H](C(C)C)NC(=O)C[C@@H](C(=O)N2CCCCC2)NC(=O)[C@H](CC(C)C)N(C)C(=O)[C@H](Cc2cccc(Cl)c2)N(C)C(=O)[C@H](COCCC(C)(C)O)NC(=O)[C@H](CC(C)C)N(C)C(=O)CN(C)C(=O)[C@H]([C@@H](C)O)NC(=O)[C@H](C(C)C)N(C)C1=O [pd434] ([dV][NMeF]L[NMeV]T[Sar][NMeL]S(Butyl(3-Me,3-OH))[NMePhe(3-Cl)][NMeL]D-Piperidide; lactam N-11) | 1.7 |
| CC[C@H](C)[C@@H]1NC(=O)[C@H](C(C)C)N(C)C(=O)CCCN(C)C(=O)C[C@@H](C(=O)N2CCCCC2)NC(=O)[C@H](CC(C)C)N(C)C(=O)[C@H](CC(C)C)N(C)C(=O)[C@H]([C@@H](C)O)NC(=O)[C@H](CC(C)C)N(C)C(=O)[C@H](COCCC(C)(C)O)NC(=O)[C@H](Cc2cccc(Cl)c2)N(C)C(=O)[C@H](Cc2ccccc2)N(C)C1=O [pd435] ([NMeGABA][NMeV]I[NMeF][NMePhe(3-Cl)]S(Butyl(3-Me,3-OH))[NMeL]T[NMeL][NMeL]D-Piperidide; lactam N-11) | 1.4 |
| CC(C)C[C@@H]1NC(=O)[C@H](Cc2ccccc2)N(C)C(=O)[C@H](CC(C)C)N(C)C(=O)[C@H](COCCC(C)(C)O)NC(=O)[C@H](C)N(C)C(=O)C[C@@H](C(=O)N2CCCCC2)NC(=O)[C@H](CC(C)C)N(C)C(=O)CN(C)C(=O)[C@H]([C@@H](C)O)NC(=O)[C@H](CC(C)C)N(C)C(=O)[C@H](CCc2ccccc2)N(C)C1=O [pd436] ([NMeA]S(Butyl(3-Me,3-OH))[NMeL][NMeF]L[NMehPhe][NMeL]T[Sar][NMeL]D-Piperidide; lactam N-11) | 1.3 |
| CC(C)C[C@@H]1NC(=O)[C@H](C)N(C)C(=O)C[C@@H](C(=O)N2CCCCC2)NC(=O)[C@H](CC(C)C)N(C)C(=O)CN(C)C(=O)[C@H]([C@@H](C)O)NC(=O)[C@H](CC(C)C)N(C)C(=O)[C@H](CCc2ccccc2)N(C)C(=O)[C@H](COCCC(C)(C)O)NC(=O)[C@H](Cc2ccccc2)N(C)C(=O)[C@H](CC(C)C)N(C)C1=O [pd437] ([NMeA]L[NMeL][NMeF]S(Butyl(3-Me,3-OH))[NMehPhe][NMeL]T[Sar][NMeL]D-Piperidide; lactam N-11) | 1.3 |
| CC(C)C[C@@H]1NC(=O)[C@H](Cc2ccccc2)N(C)C(=O)[C@H](C)N(C)C(=O)C[C@@H](C(=O)N2CCCCC2)NC(=O)[C@H](CC(C)C)N(C)C(=O)[C@H](CC(C)C)N(C)C(=O)[C@H](COC(C)(C)C)NC(=O)[C@H](CC(C)C)N(C)C(=O)[C@H](C)N(C)C(=O)[C@H](CCC(=O)N(C)C)NC(=O)[C@H](CC(C)C)N(C)C1=O [pd440] ([NMeA][NMeF]L[NMeL]E(NMe2)[NMeA][NMeL]S(tBu)[NMeL][NMeL]D-Piperidide; lactam N-11) | 4 |
| CC(C)C[C@@H]1NC(=O)[C@H](Cc2ccccc2)N(C)C(=O)[C@@H](CC(C)C)NC(=O)C[C@@H](C(=O)N2CCCCC2)NC(=O)[C@H](CC(C)C)N(C)C(=O)[C@H](Cc2ccccc2)N(C)C(=O)[C@H](COC(C)(C)C)NC(=O)[C@H](CC(C)C)N(C)C(=O)CN(C)C(=O)[C@H](CCC(=O)N(C)C)NC(=O)[C@H](CC(C)C)N(C)C1=O [pd441] ([dL][NMeF]L[NMeL]E(NMe2)[Sar][NMeL]S(tBu)[NMeF][NMeL]D-Piperidide; lactam N-11) | 1.7 |
| CCCCN1CC(=O)N(C)[C@@H](Cc2ccccc2)C(=O)N[C@@H]([C@@H](C)CC)C(=O)N(C)[C@@H](CC(C)C)C(=O)N[C@@H]([C@@H](C)O)C(=O)N(CCC)CC(=O)N(C)[C@@H](Cc2ccccc2)C(=O)N(C)[C@@H](CC(C)C)C(=O)N[C@@H](COCC(=O)NC(C)(C)C)C(=O)N(C)[C@@H](C)C(=O)N[C@H](C(=O)N2CCCCC2)CC1=O [pd443] ([NBuGly][NMeF]I[NMeL]T[NPrGly][NMeF][NMeL]S(CH2CONHtBu)[NMeA]D-Piperidide; lactam N-11) | 1 |
| CC(C)C[C@H]1C(=O)N[C@H](C(=O)N2CCCCC2)CC(=O)N(C)[C@@H](C)C(=O)N[C@@H](C(C)C)C(=O)N(C)[C@@H](CC(C)C)C(=O)N(C)[C@@H](Cc2ccccc2)C(=O)N[C@@H](C(C)C)C(=O)N(C)[C@@H](Cc2ccccc2)C(=O)N(C)[C@@H](CC(C)C)C(=O)N[C@@H](CCCCO)C(=O)N(C)CC(=O)N1C [pd448] ([NMeA]V[NMeL][NMeF]V[NMeF][NMeL][X3][Sar][NMeL]D-Piperidide; lactam N-11) | 1.3 |
| CC(C)C[C@@H]1NC(=O)[C@H](Cc2ccccc2)N(C)C(=O)[C@@H](CC(C)C)NC(=O)C[C@@H](C(=O)N2CCCCC2)NC(=O)[C@H](C(C)C)N(C)C(=O)[C@H](Cc2ccccc2)N(C)C(=O)[C@H](COC(C)(C)C)NC(=O)[C@H](CC(C)C)N(C)C(=O)CN(C)C(=O)[C@H](CCCCO)NC(=O)[C@H](CC(C)C)N(C)C1=O [pd449] ([dL][NMeF]L[NMeL][X3][Sar][NMeL]S(tBu)[NMeF][NMeV]D-Piperidide; lactam N-11) | 2 |
| CC(C)C[C@@H]1NC(=O)[C@H](Cc2ccccc2)N(C)C(=O)[C@@H](C(C)C)NC(=O)C[C@@H](C(=O)N2CCCCC2)NC(=O)[C@H](C(C)C)N(C)C(=O)[C@H](Cc2ccccc2)N(C)C(=O)[C@H](COC(C)(C)C)NC(=O)[C@H](CC(C)C)N(C)C(=O)CN(C)C(=O)[C@H](CCCCO)NC(=O)[C@H](CC(C)C)N(C)C1=O [pd450] ([dV][NMeF]L[NMeL][X3][Sar][NMeL]S(tBu)[NMeF][NMeV]D-Piperidide; lactam N-11) | 1.8 |

same assay, conditions: human; Papp, Caco-2 membrane permeability, improved method; read-out: Caco-2

| SMILES | Papp A→B at 180 min [×10⁻⁶ cm/s] |
| --- | --- |
| CC(C)C[C@H]1C(=O)N[C@@H](C(C)C)C(=O)N(C)[C@@H](Cc2ccccc2)C(=O)N(C)[C@@H](Cc2ccccc2)C(=O)N[C@@H](COC(C)(C)C)C(=O)N(C)[C@@H](CC(C)C)C(=O)N[C@@H](CCCCO)C(=O)N(C)[C@@H](CC(C)C)C(=O)N(C)[C@@H](CC(C)C)C(=O)N[C@H](C(=O)N2CCCCC2)CC(=O)N(C)CCCC(=O)N1C [pd446] ([NMeGABA][NMeL]V[NMeF][NMeF]S(tBu)[NMeL][X3][NMeL][NMeL]D-Piperidide; lactam N-11) | 1.3 |

— patent US20200131669A1, “CYCLIC PEPTIDE COMPOUND HAVING HIGH MEMBRANE PERMEABILITY, AND LIBRARY CONTAINING SAME” (Chugai Seiyaku Kabushiki Kaisha, priority 2017, published 2020)
